Experimental data: paper PMC10436260, “Thiazolide Prodrug Esters and Derived Peptides: Synthesis and Activity” (ACS Bio & Med Chem Au, 2023)
In brackets after ≈: the same amount, converted by molar mass. Entries after “also recorded” stand apart in the source; their conditions may differ. Read-outs that look alike come from different tables or passages of the source.

How the values were obtained:
[1] = type: physicochemical; conditions: for stability of solutions: pH 5
From the text: We studied the aqueous stability further by NMR, Figures 1 and 2. […] In the case of valacyclovir, which we originally used as a model for 5a and 6, it was known that some hydrolysis occurred in vivo.[17] Clearly, at the 18 day time point [Figure 2g], the rearrangement and hydrolysis products accounted for ∼50% of the total analyte. In Figure 3, the aryl region is integrated and compared with the spectra of 5a, 3, and 8 (see below).
Figure 2 Time-course ^1H NMR spectra of the aromatic region of 5a in d6-DMSO + 10%D2O. Evolution with time over an 18 day period at 298–313 K. The sample was held in an isothermal bath at a specified temperature between measurements. Spectra were recorded at the temperature stated in each case. (a) t = zero, 298 K; (b) t = 1 week, 308 K; (c) t = 8 days, 308 K; (d) t = 9 days, 308 K; (e) t = 11 days, 313 K; (f) t = 14 days, 313 K; (g) t = 18 days, 313 K.
Figure 3 Assignment and integration of the final time-point spectrum.

[2] = rat, in vivo, po; cited from earlier work
[3] = system: influenza A virus (IAV) strain A/PuertoRico/8/1934(H1N1) (PR8); assay: microbe, parasite or virus in culture; type: cell-based
physchem [4] = type: physicochemical
From the text: Table 1 Summarized DMPK and Antiviral Data for Thiazolides and Derived Peptides | column: log P

in vitro = in vitro ADME; conditions: human, microsomes
From the text: Table 1 Summarized DMPK and Antiviral Data for Thiazolides and Derived Peptides | column: clearance HLM μL/min/mg

[5] = cell viability by MTT assay in mock-infected cells; type: cell-based, canine; conditions: dog; mock-infected MDCK cells, MTT, 24 h; read-out: CC50 (50% cytotoxic concentration)
Protocol: (§1) Madin–Darby canine kidney (MDCK) cells (American Type Culture Collection, ATCC) were grown at 37 °C in a 5% CO2 atmosphere in an RPMI-1640 medium (LONZA-CAMBREX, Basel, Switzerland), supplemented with 10% fetal calf serum (FCS), 2 mM glutamine, and antibiotics. Tizoxanide (Romark Laboratories, L.C.) and derived peptides, dissolved in a dimethyl sulfoxide (DMSO) stock solution, were diluted in culture medium, added to infected cells after a one-hour virus adsorption period, and maintained in the medium for the duration of the experiment.
(§2) Cell viability was determined by the 3-(4,5-dimethylthiazol-2-yl)-2,5-diphenyltetrazolium bromide (MTT) to MTT formazan conversion assay (Sigma-Aldrich), as described.[28],[29] The 50% cytotoxic dose (CC50) was calculated using Prism 5.0 software (Graph-Pad Software Inc.).[28]
(§3) Confluent cell monolayers were mock-infected or infected with PR8 virus for 1 h at 37 °C at a multiplicity of infection (MOI) of 5 HAU (hemagglutinating units)/10^5 cells, as described.[30],[31] After the adsorption period, the viral inoculum was removed and cells were treated with different concentrations (0.1, 1, 5, 10, and 50 μg/mL) of each compound or vehicle and maintained at 37 °C in an RPMI-1640 medium containing 2% FCS for 24 h; in parallel, cell viability was determined in mock-infected cells by the MTT assay, as described above. Virus yield was determined 24 h post infection (p.i.) by HA titration, as described.[31] Compounds’ IC50 (50% inhibitory concentration) and IC90 (90% inhibitory concentration) were calculated using Prism 5.0 software.

[6] = clearance in rat hepatocytes (RH); type: in vitro ADME
From the text: Table 1 Summarized DMPK and Antiviral Data for Thiazolides and Derived Peptides | column: clearance RH μL/min/10^6 cells

physchem [7] = conditions: pH 7.4
[8] = system: Madin–Darby canine kidney (MDCK) cells; assay: cell viability by MTT assay in mock-infected cells; type: cell-based; conditions: antiviral assay conditions, MDCK cells
Protocol: as §1, §2, §3

[9] = CC50 (MDCK) / IC50 (influenza A)
[10] = Influenza A virus, MDCK, 24 h; read-out: IC50 (50% inhibitory concentration)
[11] = Influenza A virus, MDCK, 24 h; read-out: IC90 (90% inhibitory concentration)

SMILES | antiviral activity in words ([3]; influenza A virus assay) | logP (physchem [4]) | microsomal CLint (in vitro) [µL/min/mg] | CC50 at 24 h [5] [µM] | hepatocyte CLint [6] [µL/min/1e6 cells] | SI, selectivity index, CC50/IC50 [3, 9] | IC50 [3, 10] [µM] | IC90 [3, 11] [µM] | solubility (physchem [7]) [µM] | further results
CC(C)(C)[C@H](N)C(=O)Oc1ccccc1C(=O)Nc1ncc([N+](=O)[O-])s1 [5a] | activity is equivalent to 3 | – | – | – | – | – | – | – | – | stability on storage [1]: stable for months; rearrangement and hydrolysis products as share of total analyte / loss of 5a ([1]; d6-DMSO + 10% D2O, 298–313 K, 18 day time point, 1H NMR integration): ~50%; absolute bioavailability [2]: 20–25%
CC(C)(C)[C@H](N)C(=O)Oc1ccccc1C(=O)Nc1ncc([N+](=O)[O-])s1.Cc1ccc(S(=O)(=O)O)cc1 [5b, (S)-3,3-Dimethyl-1-(2-((5-nitrothiazol-2-yl)carbamoyl)phenoxy)-1-oxobutan-2-aminium 4-methylbenzenesulfonate] | – | – | – | – | – | – | – | – | – | stability of solutions [1]: unstable
CC(C)(C)[C@H](N)C(=O)Oc1ccccc1C(=O)Nc1ncc([N+](=O)[O-])s1.CS(=O)(=O)O [5c, (S)-3,3-Dimethyl-1-(2-((5-nitrothiazol-2-yl)carbamoyl)phenoxy)-1-oxobutan-2-aminium Methanesulfonate] | – | – | – | – | – | – | – | – | – | stability of solutions [1]: unstable
O=C(Nc1ncc([N+](=O)[O-])s1)c1ccccc1O [compound 3, Tizoxanide, reference compound] | – | 1.8 | 50.2 | > 189 | 244 | >82 | 2.3 | 26.4 | 33 (≈ 8.75 µg/mL) | –
O=C(Nc1ncc(Cl)s1)c1ccccc1O [compound 4, reference compound] | – | 2.9 | 37.5 | > 196 | > 300 | – | – | – | 48 (≈ 12.2 µg/mL) | SI, selectivity index, CC50/IC50 [3]: >50; IC50 ([3]; Influenza A virus, MDCK, 24 h, read-out: IC50 (50% inhibitory concentration)): 3.9 µM; IC90 ([3]; Influenza A virus, MDCK, 24 h, read-out: IC90 (90% inhibitory concentration)): 19.6 µM
CC(C)(C)[C@H](N)C(=O)Oc1ccccc1C(=O)Nc1ncc(Cl)s1 [compound 6] | – | – | – | – | – | – | – | – | – | stability on storage [1]: stable for months; absolute bioavailability [2]: 20–25%
CC(C)(C)[C@H](NC(=O)c1ccccc1O)C(=O)Nc1ncc([N+](=O)[O-])s1 [compound 8, (S)-N-(3,3-Dimethyl-1-((5-nitrothiazol-2-yl)amino)-1-oxobutan-2-yl)-2-hydroxybenzamide] | retains good activity | 3.3 | 36.5 | > 132 | 31.5 | >83 | 1.6 | 79 | 18 (≈ 6.81 µg/mL) | –
CC(C)(C)[C@H](NC(=O)c1ccccc1O)C(=O)Nc1ncc(Cl)s1 [compound 20, (S)-N-(3,3-Dimethyl-1-((5-chlorothiazol-2-yl)amino)-1-oxobutan-2-yl)-2-hydroxybenzamide] | essentially inactive; also recorded: virtually inactive | > 3.5 | 42.4 | 40.8 | 75.4 | – | > 40.8 | > 40.8 | 388 (≈ 143 µg/mL) | toxicity under the assay conditions in words [8]: appeared toxic
CC(C)[C@H](NC(=O)c1ccccc1O)C(=O)Nc1ncc([N+](=O)[O-])s1 [compound 21, (S)-2-Hydroxy-N-(3-methyl-1-((5-nitrothiazol-2-yl)amino)-1-oxobutan-2-yl)benzamide] | considerably less active | 2.9 | 55.9 | > 137 | 67.7 | >10 | 13.7 | > 137 | > 1000 | –
CC(C)[C@H](NC(=O)c1ccccc1O)C(=O)Nc1ncc(Cl)s1 [compound 22, (S)-2-Hydroxy-N-(3-methyl-1-((5-chlorothiazol-2-yl)amino)-1-oxobutan-2-yl)benzamide] | essentially inactive; also recorded: virtually inactive | – | 42.7 | 42.4 | 234 | – | > 42.4 | > 42.4 | 82 (≈ 29 µg/mL) | toxicity under the assay conditions in words [8]: appeared toxic
